Our source for the MIC and IC50 values is ChEMBL document CHEMBL1133870, “Two novel cytotoxic and antimicrobial triterpenoids from Pseudolarix kaempferi” (Bioorg Med Chem Lett, 2001).

As a reminder, the MIC is the lowest concentration that inhibits growth of the organism. High values mean a need for much substance, low ones inhibition by little substance. Usually IC50 stands for the concentration that gives 50% inhibition. Low readings indicate greater potency in that assay, high ones weaker potency in that assay.

One assay deals with Micrococcus luteus. In words: Compound was tested for minimum inhibitory concentration against Micrococcus luteus ATCC 9341. The format is functional.
Another assay has as its system Staphylococcus aureus. As to the kind of experiment: Compound was tested for minimum inhibitory concentration against Staphylococcus aureus ATCC 25923. Format: functional.
Another assay has as its system Pseudomonas aeruginosa. In words: Compound was tested for minimum inhibitory concentration against Pseudomonas aeruginosa […]. The format is functional.
The subject of the next assay is Escherichia coli. As to the kind of experiment: Compound was tested for minimum inhibitory concentration against Escherichia coli […]. The format is functional.
In a further assay the test system is P388. As to the kind of experiment: Compound was tested for its cytotoxicity against P388 cell line. The format is functional, cell-based. The following applies: Mus musculus.
A further assay concerns A549. As to the kind of experiment: Compound was tested for its cytotoxicity against A 549 cell line. Format: functional, cell-based. Conditions: Homo sapiens.

Values after ≈ are worked out from the molar mass of the structure shown.

Consider `C=C[C@@](C)(/C=C/c1ccc(O)cc1)CCC=C(C)C` [BAKUCHIOL], for which the MIC with Micrococcus luteus is 10 µM (≈ 2.56 µg/mL); against Staphylococcus aureus it was 19 µM (≈ 4.87 µg/mL); in the assay on Pseudomonas aeruginosa, more than 780 µM; in the assay on Escherichia coli it was more than 780 µM.
As for `C[C@H](CC(=O)O)[C@]1(C)CC=C2C3=CCC4C(C)(C)[C@H](O)CC[C@]4(C)[C@@H]3CC[C@]21C` (stereo partly specified), the IC50 with P388 was determined as 55 µM; with A549 it was 60 µM.
With `C[C@H](Cc1cc(C(=O)O)co1)[C@]1(C)CC=C2C3=CCC4C(C)(C)[C@H](O)CC[C@]4(C)[C@@H]3CC[C@]21C` (stereo partly specified), the MIC against Micrococcus luteus was 13 µM (≈ 6.07 µg/mL); in the assay with Staphylococcus aureus it was 27 µM (≈ 12.6 µg/mL); with Pseudomonas aeruginosa it was more than 215 µM; against Escherichia coli, 107 µM (≈ 49.9 µg/mL). For the same molecule, the IC50 came out at 50 µM with P388 and 54 µM in the assay on A549.
Regarding `C=CCc1ccc(O)c(-c2cc(CC=C)ccc2O)c1` [MAGNOLOL], the MIC in the assay with Micrococcus luteus is 48 µM (≈ 12.8 µg/mL); in the assay with Staphylococcus aureus, 48 µM (≈ 12.8 µg/mL); in the assay with Pseudomonas aeruginosa it was more than 750 µM; against Escherichia coli, more than 750 µM.
